Tested on: chicken leukocytes
Test: cells
Type: cell-based
Conditions: for minimal effective concentration: Gallus gallus, Leukocyte, read-out: MSC (Minimum Stimulatory Concentration)
Experimental: Various compounds of Formula I were evaluated for in vitro T-lymphocyte blastogenic activity with chicken leukocytes according to the steps described in the following procedure:
(a) Exsanguination step. The leukocytes were obtained from 3-6 week old Hubbard/Peterson broiler chickens. Initially, the chickens were rendered unconscious in a CO2 chamber. The chickens were then exsanguinated via cardiac puncture. In the exsanguination procedure, a syringe was connected to a needle, and the needle was inserted into the area at the base of the neck under the “V” formed by the breast and sternum. After the needle was properly inserted, continuous vacuum was applied to a syringe (connected to the needle) by pulling back on the plunger. It is important to promptly carry out this withdrawal action, because there is only a 10-15 seconds time period after the blood has starting flowing into the syringe before the blood coagulates, and becomes unusable. As soon as the syringe is full (or prior to complete filling if too much time has elapsed such that the blood begins to coagulate), the whole uncoagulated blood is transferred to a tube having the anticoagulant EDTA therein. The tube is then rotated to mix the whole blood and the EDTA. Alternatively, the whole blood can be withdrawn directly into a vacuum container already having EDTA therein, rather than into a syringe.
(b) Leukocyte isolation step. Numerous methods for isolating leukocytes from (uncoagulated) whole blood are known in the art. In a preferred method, the sterile whole blood was combined with methylcellulose (1.5:1). Any blood containing clots was discarded. The mixture was centrifuged at 30×g for ten minutes (300 rpm on Beckman GS-6R centrifuge). The top layer (leukocytes in supernatant) was decanted into a sterile 50 ml conical tube, while taking care to prevent contamination of the sample by red blood cells. The decanted layer was then centrifuged at 200×g for ten minutes (1500 rpm on the Beckman GS-6R centrifuge). The supernatant liquid was discarded, and the resulting cell “pellet” was retained.
The cells were then washed in a solution containing 10 ml PBS (phosphate buffered saline) and Gentamycin (gentamicin sulfate) at a concentration of 50 μg/ml. This solution was centrifuged at 100×g (1000 rpm on the Beckman centrifuge) for five minutes, and the supernatant liquid was discarded. The washing step (including the centrifuging at 100×g) was repeated to ensure complete removal of the methylcellulose. The use of media such as DMEM ([…]) was avoided in the washing steps, since such media may cause agglutination of the white blood cells. Finally, the cells were then suspended in an appropriate media, such as RPMI 1640 tissue cell culture medium, supplemented with phenol red, NaHCO3, and L-Glutamide. Supplemented RPMI 1640 is available from Sigma-Aldrich Chemical Co.
(c) Cell counting and cell viability step. The cells were counted and checked for viability using the Trypan Blue method of exclusion. 0.1 ml of the cell suspension was placed in a 4-5 ml small culture tube along with 0.7 ml HBSS (Hank's Buffered Saline Solution), available from Sigma-Aldrich, and 0.2 ml of a 0.4% solution of aqueous Trypan Blue stain, available from GIBCO BRL, of Grand Island, N.Y. The components were mixed thoroughly but gently, and allowed to sit for 5 minutes (no longer than 15 minutes). The components should not be exposed to the stain for extended periods of time, because such extended exposure may permit viable cells, as well as non-viable cells, to take up dye.
A cover slip was placed on a Bright Line hemacytometer, available from Howser Scientific, and 10 μl of the mixture from the tube was transferred to each chamber. Non-viable cells appear blue under a microscope. The viable cells in one of the 16-square corners of the hemacytometer were then counted. […]

[1] = chicken leukocytes, read at 72 hours
[2] = Hubbard/Peterson broiler, chicken, 72 h

| Molecule | minimal effective concentration [1] | MTC (Maximum Tolerable Concentration prior to causing cytotoxicity) [2] | MSC (Minimum Stimulatory Concentration) [1] | MTC (Maximum Tolerable Concentration prior to causing cytotoxicity) [1] |
| --- | --- | --- | --- | --- |
| CCCCOC(=O)C1CCCN(C(=O)c2ccccc2)C1 (stereo not drawn) [Example 13, n-Butyl 1-Benzoyl-3-piperidinecarboxylate] | 0.01 µg/mL | 1 µg/mL | – | – |
| Ethyl 1-(2-Bromobenzoyl)-2-acetylpiperidinecarboxylate [Example 45] | – | – | 1 µg/mL | – |
| CCOC(=O)C1CCCN(C(=O)OCc2ccccc2)C1 (stereo not drawn) [Example 4, Ethyl 1-Benzyloxycarbonyl-3-piperidinecarboxylate] | 1 µg/mL | 10 µg/mL | – | – |
| O=C(Cc1cccs1)N1CCCC(O)C1 (stereo not drawn) [Example 41, 1-(2-Thiopheneacetyl)-3-hydroxypiperidine] | 10 µg/mL | 100 µg/mL | – | – |
| CCOC(=O)[C@H]1CCCN(C(=O)NC)C1 [Example 49, (S)-Ethyl 1-(N-Methylurea)-3-piperidinecarboxylate] | – | – | 1 µg/mL | 10 µg/mL |
| CCOC(=O)[C@H]1CCCN(C(=O)C(C)c2ccccc2)C1 (mixture of isomers) [Example 58, (S)±Ethyl 1-(2-Phenylpropionyl)-3-piperidinecarboxylate] | – | – | 1 µg/mL | – |
| CCC(=O)OC1CCCN(C(=O)Cc2cccs2)C1 (stereo not drawn) [Example 46, 1-(2-Thiopheneacetyl)-3-(O-propionyl)piperidine] | – | – | 1 µg/mL | 10 µg/mL |
| CCOC(=O)C1CCCN(C(=O)c2ccsc2)C1 (stereo not drawn) [Example 2, Ethyl 1-(3-thiophenecarbonyl)-3-piperidinecarboxylate] | 1 µg/mL | 1 µg/mL | – | – |
| O=C[C@H]1CCCN(C(=O)Cc2cccs2)C1 [Example 63, (S)-1-(2-Thiopheneacetyl)-3-piperidinecarboxaldehyde] | 1 µg/mL | 10 µg/mL | – | – |
| CCOC(=O)C1CCCN(C(=O)c2ccc(F)cc2)C1 (stereo not drawn) [Example 7, Ethyl 1-(4-Fluorobenzoyl)-3-piperidinecarboxylate] | 0.01 µg/mL | 10 µg/mL | – | – |
| CS(=O)(=O)OC1CCCN(C(=O)Cc2cccs2)C1 (stereo not drawn) [Example 44, 1-(2-Thiopheneacetyl)-3-(O-methanesulfonyl)piperidine] | – | – | 1 µg/mL | 10 µg/mL |
| CCOC(=O)C1CCCN(C(=O)c2ccc(-c3ccccc3)cc2)C1 (stereo not drawn) [Example 36, Ethyl 1-(4-Phenylbenzoyl)-3-piperidinecarboxylate] | 0.1 µg/mL | 10 µg/mL | – | – |
| CCOC(=O)CC1CCCCN1C(=O)Cc1cccs1 (stereo not drawn) [Example 28, Ethyl 1-(2-Thiopheneacetyl)-2-piperidinylacetate] | – | – | 0.1 µg/mL | – |
| CCOC(=O)C1CCC[N+](C)(Cc2ccccc2)C1.[I-] (stereo not drawn) [Example 35, Ethyl 1-Benzyl-3-piperidinecarboxylate 1-Methiodide] | – | – | 10 µg/mL | – |
| CCOC(=O)CC1CCCN(C(=O)Cc2cccs2)C1 (stereo not drawn) [Example 27, Ethyl 1-(2-Thiopheneacetyl)-3-piperidinylacetate] | 1 µg/mL | 1 µg/mL | – | – |
| O=C(Cc1cccs1)N1CCC[C@H](CO)C1 [Example 59] | – | – | 10 µg/mL | 100 µg/mL |
| N.O=C(O)[C@H]1CCCN(C(=O)Cc2cccs2)C1 [Example 42, (S)-1-(2-Thiopheneacetyl)-3-piperidinecarboxylic Acid Ammonium Salt] | 1 µg/mL | – | – | 10 µg/mL |

| Molecule | minimal effective concentration [1] | MTC (Maximum Tolerable Concentration prior to causing cytotoxicity) [2] | MSC (Minimum Stimulatory Concentration) [1] | MTC (Maximum Tolerable Concentration prior to causing cytotoxicity) [1] |
| --- | --- | --- | --- | --- |
| COC(=O)[C@H]1CCCN(C(=O)c2ccccc2)C1 [Example 52, (S)-Methyl 1-Benzoyl-3-piperidinecarboxylate] | 0.1 µg/mL | 10 µg/mL | – | – |
| CNC(=O)N1C2CCC1C(C(=O)OC)C(=O)C2 (stereo not drawn) [Example 40, 8-[(Methylamino)carbonyl]-3-oxo-8-azabicyclo[3.2.1]octane-2-carboxylic Acid, Methyl Ester] | 0.01 µg/mL | – | – | 10 µg/mL |
| CN(C)C(=O)C1CCC[N@+](C)(Cc2ccccc2)C1.[I-] (stereo partly drawn) [Example 71, (S)-N,N-Dimethyl 1-Benzyl-3-piperidinecarboxamide 1-methiodide] | – | – | 0.1 µg/mL | – |
| CCOC(=O)C1CN(C(=O)c2ccccc2)CCC1=O (stereo not drawn) [Example 3, Ethyl 1-Benzoyl-4-oxo-3-piperidinecarboxylate] | 0.01 µg/mL | 1 µg/mL | – | – |
| CCOC(=O)C1CCCN(C(=O)CCc2ccccc2)C1 (stereo not drawn) [Example 43, Ethyl 1-(1-Phenylpropionyl)-3-piperidinecarboxylate] | – | – | 1 µg/mL | – |
| CCOC(=O)[C@H]1CCCN(C(=O)NCc2ccccc2)C1 [Example 48, (S)-Ethyl 1-(N-Benzylurea)-3-piperidinecarboxylate] | – | – | 10 µg/mL | – |
| CCOC(=O)C1CCCN(C(=O)c2ccccc2)C1 (stereo not drawn) [Example 1, Ethyl 1-Benzoyl-3-piperidinecarboxylate] | 0.1 µg/mL | 10 µg/mL | – | – |
| CCNC(=O)C1CCCN(C(=O)c2ccccc2)C1 (stereo not drawn) [Example 17, N-Ethyl 1-Benzoyl-3-piperidinecarboxamide] | 1 µg/mL | 10 µg/mL | – | – |
| CCOC(=O)C1CCCN(C(=O)CCc2cccs2)C1 (stereo not drawn) [Example 23, Ethyl 1-(3-(2-Thienyl)propionyl)3-piperidinecarboxylate] | 0.1 µg/mL | 1 µg/mL | – | – |
| CCCCCCCCNC(=O)C1CCCN(C(=O)c2ccccc2)C1 (stereo not drawn) [Example 18, N-(n-Octyl) 1-Benzoyl-3-piperidinecarboxamide] | 0.01 µg/mL | 0.1 µg/mL | – | – |
| CCCOC(=O)[C@H]1CCCN(C(=O)c2ccccc2)C1 [Example 53, (S)-Propyl 1-Benzoyl-3-piperidinecarboxylate] | 1 µg/mL | 10 µg/mL | – | – |
| O=C(O)[C@H]1CCCN(C(=O)Cc2cccs2)C1 [Example 37, (S)-1-(2-Thiopheneacetyl)-3-piperidine Carboxylic Acid] | 10 µg/mL | 1000 µg/mL | – | – |
| CCOC(=O)C1CN(C(=O)c2ccc(F)cc2)CCC1=O (stereo not drawn) [Example 12, Ethyl 1-(4-Fluorobenzoyl)-4-oxo-3-piperidinecarboxylate] | 0.01 µg/mL | 0.1 µg/mL | – | – |
| CCOC(=O)C1CCCN(C(=O)c2cccs2)C1 (stereo not drawn) [Example 8, Ethyl (2-Thiophenecarbonyl)-3-piperidinecarboxylate] | – | – | 0.1 µg/mL | – |
| CCOC(=O)C1CCC(C)N(C(=O)Cc2cccs2)C1 (stereo not drawn) [Example 33, Ethyl 1-(2-Thiopheneacetyl)-6-methyl-3-piperidinecarboxylate] | 0.1 µg/mL | 10 µg/mL | – | – |
| CCOC(=O)[C@H]1CCCN(CCCc2cccs2)C1 [Example 54, (S)-Ethyl 1-(2-Thienylpropyl)-3-piperidinecarboxylate] | 1 µg/mL | 10 µg/mL | – | – |
| CCOC(=O)C1CC(C)CN(C(=O)Cc2cccs2)C1 (stereo not drawn) [Example 57, Ethyl 1-(2-Thiopheneacetyl)-5-methyl-3-piperidinecarboxylate] | 10 µg/mL | 10 µg/mL | – | – |

Source: patent US6664271B1, “Immunopotentiator agents” (Eli Lilly and Company, priority 1999, dated 2003)
